Read-outs that look alike come from different tables or passages of the source.
How the values were obtained:
[1] = Differential scanning calorimeter (DSC) trace of hydrated amphiphile; assay type: physicochemical
[2] = Liposome average diameter by dynamic light scattering; assay type: physicochemical; conditions: extruded through 50 nm membrane, Tris buffer pH 7.4
Text: (§1) It is likely that 4 will form bilayers. […] After 20 extrusions, a homogeneous liposome solution was observed.

[3] = Transmission electron micrographs (TEM) of vesicles; assay type: physicochemical
Text: as §1

calf thymus DNA = experiment: Ethidium bromide displacement fluorescence assay; assay type: binding; conditions: fluorescence intensity as a function of vector/DNA charge ratio
Method: The propensity of the lipids to bind DNA was measured via an ethidium bromide displacement fluorescence assay. This assay entailed measuring the reduction of the fluorescence intensity of the DNA-intercalated ethidium bromide, as this fluorescent probe is displaced by the cationic amphiphile. […] The results obtained with DOTAP, DOTAP/DOPE, and DOPC/DOTAP are consistent with previous reports. A 1:1 assembly is formed between the lipids and DNA.
Binding studies were carried out by competitive displacement fluorimetric assay with DNA-bound ethidium bromide. This assay involves the addition of aliquots of the compound to a 3 mL solution of EthBr (1.3 μM) and calf thymus DNA (3 μM) in buffer (100 mM NaCl, 100 mM Tris, pH 7.4) with the decrease of fluorescence (λexc=546 nm, λem=600 nm; 1 cm path length glass cuvette, slit width 3 nm) recorded after 5 min equilibrium time following each addition.

[4] = test system: Chinese hamster ovarian (CHO) cells; experiment: β-galactosidase reporter gene transfection in CHO cells; assay type: cell-based
Method: The reporter gene was first mixed with the lipids in potassium phosphate buffer (PBS) at room temperature. We tested two different lipid/DNA ratios (5:1; and 20:1) while keeping the zwitterionic/DOTAP ratio constant at 1:1. Next, the lipid/DNA complexes were added to the cells. The amount of DNA used was the same as used in the naked DNA control (no lipid), and the negative control was compound 4 without DNA. After incubation at 37° C. and 5% CO2 for 2 h, the medium was removed and fresh growth medium was added. Transfection efficiencies were assessed after 48 h using the β-galactosidase enzyme assay in conjunction with a standard curve. The efficiency of each transfection was calculated as β-gal activity normalized to total protein.
Transfection assays were performed using the well established beta-galactosidase transfection assay. In these experiments the beta-galactosidase gene is transfected into cells. Next, the expressed enzyme then cleaves a chemiluminescent reporter that is detected. […]
Chinese hamster ovarian cells (CHO, ATCC, Manassas, Va.) were cultured in complete F12K media (ATCC) containing 10% fetal calf serum (Sigma) and 1% penicillin and streptomycin (500 IU/ml and 5000 μg/ml, respectively, Mediatech, Herndon, Va.) at 37° C. in 5% CO2 with humidity. […] Transfection efficiencies were assessed 24 h to 48 h post transfection depending on the experimental design. […]

CHO cells [5] = experiment: Cytotoxicity, formazan-based proliferation assay and total protein assay, CHO cells; conditions: for cytotoxicity (cell proliferation/number as percentage of non-treated cells): 24 hours after addition
Method: Cytotocixity experiments were also performed with CHO and L6 cells using a formazan-based proliferation assay and a total protein assay. The cells were seeded onto a 96-multiwell plate with an appropriate density of 1×10^4 cells per well. […] After another 24 hours, cell proliferation/number was determined and expressed as a percentage of non-treated cells.
Cytotoxicity was assessed using both a formazan-based proliferation assay (CellTiter 96 AQueous One Solution Cell Proliferation Assay kit, Promega) and a total protein-based assay (Pierce). Briefly, CHO cells were seeded onto a multi-well microtiter plate with an appropriate density, depending on the size of the well (e.g., 1×10^4 cells per well in a 96-well plate). After 48 h, MTS substrate was added to each well and the plate and incubated for 4 h at 37° C. in a humidified, 5% CO2 incubator. The amount of soluble formazan produced by cellular reduction of the substrates MTS was recorded at 490 nm using a multi-well plate reader. For the total protein-based proliferation assay, cells were lysed at the same time when transfection efficiency was assayed. A 5 μL of lysates were transferred to a separate multi-well plate. Total protein contents were assessed using the Coomassie Blue protein kit (Pierce, Rockford, Ill.) following the manufacturer protocol. Negative and positive controls were non-treated cells and commercial lipids treated cells, respectively. The proliferation results were expressed as percentages of non-treated cells.

L6 cells = experiment: Cytotoxicity, formazan-based proliferation assay and total protein assay, L6 cells; assay type: cell-based; conditions: 24 hours after addition
CHO cells [6] = experiment: Gene transfection efficiency in a cell population by optical microscopy; assay type: cell-based, Chinese hamster; conditions: reporter gene β-gal
Text: Importantly, more than 70% of the cells had been transfected as compared to less than 40% when using other transfection reagents.

GAPDH = experiment: siRNA delivery, KDalert GAPDH gene knockdown assay; assay type: cell-based; conditions: 48 hr after siRNA transfection
Method: Trypsine adherent cells and dilute in normal growth medium to 1×10^5 cells per ml. […] Dilute RNA in serum free medium. Mix the diluted RNA with the transfectant reagent, incubate for 10 min at room temperature and dispense into a culture plate. Depending on the experimental design, the ration of lipid, siRNA, pH, and incubation time was varied. Overlay cell suspension onto the transfection mixture. Incubate at 37° C. and 5% CO2. Assay for gene knockdown were assessed after 48 h depending on the experimental protocol.
The gene knockdown assay performed was KDalert™ GAPDH Assay (Ambion) following the manufacturer protocol. Briefly, 48 hr after siRNA transfection, aspirate the culture medium from transfected cells. Add 200 μl KDalert Lysis Buffer to each sample well. Incubate at 4° C. for 20 min to lyse the cells. Pipet the cell lysate up and down 4-5 times to homogenize the lysate. Transfer 10 μl of each lysate or GAPDH Enzyme dilution (including the GAPDH Working Stock) to the wells of a clean 96 well plate. Working quickly, add 90 μl of KDalert Master Mix to each sample using a multi-channel pipettor to dispense the KDalert Master Mix quickly. Measure the increase in fluorescence of the samples at room temp. Using the reagent above we saw greater than 80% knockdown of the protein.

Method for esterase: Next, we prepared vesicles of 4, 4/DOTAP, and DOPC/DOTAP. A chloroform solution containing 4, 4/DOTAP, or DOPC/DOTAP was added to a pear shaped flask and the solution was evaporated under vacuum leaving a thin film deposited onto the flask wall. One mL of Tris buffer (100 mM Tris, 100 mM NaCl, pH 7.4) was then added and the film was peeled off by vortexing. The milky aqueous suspension was extruded through a polycarbonate membrane (50 nm) using an Aventi polar lipids mini-extruder. After 20 extrusions, a homogeneous liposome solution was observed.

C[N+](C)(C)CCOP(=O)([O-])OCC(COC(=O)CCCCCCCCCCC(=O)OCc1ccccc1)OC(=O)CCCCCCCCCCC(=O)OCc1ccccc1 (racemic) [Compound 4, 1,2-Di-dodecanedioyl benzyl ester-3-phosphocholine-rac-glycerol]
phase-transition temperature [1]: ~44 °C
average diameter of the liposomes [2]: 79 nm
average size of vesicular organizations [3]: about 100 nM
displacement of DNA-intercalated ethidium bromide (fluorescence intensity) (calf thymus DNA): do not displace EtBr
transfection efficiency (β-gal activity normalized to total protein) ([4]; assessed after 48 h, result in words): does not transfect DNA
cytotoxicity (cell proliferation/number as percentage of non-treated cells) (CHO cells [5]; CHO cells): None of the amphiphiles showed significant cytotoxicity
cytotoxicity (cell proliferation/number as percentage of non-treated cells) (L6 cells): None of the amphiphiles showed significant cytotoxicity
time to loss of 4 (esterase): four
time to complete hydrolysis of 4 to yield 5 (esterase; esterase added to liposomes prepared from 4, HPLC): 8 h

CCCCCCCC/C=C\CCCCCCCC(=O)OC[C@H](COP(=O)(O)OCCN)OC(=O)CCCCCCC/C=C\CCCCCCCC [DOPE, dioleylphosphatidyl ethanolamine]
displacement of DNA-intercalated ethidium bromide (fluorescence intensity) (calf thymus DNA): do not displace EtBr

NCCOP(=O)(O)OCC(COC(=O)CCCCCCCCCCC(=O)OCc1ccccc1)OC(=O)CCCCCCCCCCC(=O)OCc1ccccc1 (racemic) [1,2-Di-dodecanedioyl benzyl ester-3-phosphoethanolamine-rac-glycerol]
cell cytotoxicity (CHO cells [5]): minimal cell cytotoxicity

CCCCCCCC/C=C\CCCCCCCC(=O)OCC(C[N+](C)(C)C)OC(=O)CCCCCCC/C=C\CCCCCCCC (stereo not shown) [DOTAP, 1,2-dioleoyloxy-3-(trimethylammonio)-propane, reference compound]
displacement of DNA-intercalated ethidium bromide (fluorescence intensity) (calf thymus DNA): fluorescence intensity decreases
cytotoxicity (cell proliferation/number as percentage of non-treated cells) (CHO cells [5]; CHO cells): None of the amphiphiles showed significant cytotoxicity
cytotoxicity (cell proliferation/number as percentage of non-treated cells) (L6 cells): None of the amphiphiles showed significant cytotoxicity

1,2-Di-tetradecanoyl-3-Lys-Trp-Lys-rac-glycerol
transfection capability ([4]; CHO cells, Example 15, β-gal reporter gene): high transfection capability
cell cytotoxicity (CHO cells [5]; CHO cells, Example 16, MTS and total protein assays): minimal cell cytotoxicity
cells transfected (CHO cells [6]): more than 70%
knockdown of the protein (GAPDH): greater than 80%

CCCCCCCC/C=C\CCCCCCCC(=O)OC[C@H](COP(=O)([O-])OCC[N+](C)(C)C)OC(=O)CCCCCCC/C=C\CCCCCCCC [DOPC, dioleylphosphatidyl choline]
displacement of DNA-intercalated ethidium bromide (fluorescence intensity) (calf thymus DNA): do not displace EtBr

Source: patent publication US20090221684A1, “Molecules for Gene Delivery and Gene Therapy, and Methods of Use Thereof” (priority 2005, published 2009)
